A short description of data set [1]: Metabolism stability test, pooled human hepatic microsomes (Test Example 11). In kind it is in vitro ADME. Particulars: human liver microsomes, 30 minutes, compound concentration 0.5 μmol/L. On the procedure:
Using commercially available pooled human hepatic microsomes, a test compound is reacted for a constant time, a remaining rate is calculated by comparing a reacted sample and an unreacted sample, thereby, a degree of metabolism in liver is assessed.
A reaction was performed (oxidative reaction) at 37° C. for 0 minute or 30 minutes in the presence of 1 mmol/L NADPH in 0.2 mL of a buffer (50 mmol/L tris-HCl pH 7.4, 150 mmol/L potassium chloride, 10 mmol/L magnesium chloride) containing 0.5 mg protein/mL of human liver microsomes. After the reaction, 50 μL of the reaction solution was added to 100 μL of a methanol/acetonitrile=1/1 (v/v), mixed and centrifuged at 3000 rpm for 15 minutes. The test compound in the supernatant was quantified by LC/MS/MS, and a remaining amount of the test compound after the reaction was calculated, letting a compound amount at 0 minute reaction time to be 100%.
The remaining rate at the compound concentration 0.5 μmol/L are shown below.
In general terms: Liver microsomes are vesicles of endoplasmic reticulum, rich in cytochrome P450 enzymes.

For another data set, the target named is human P2X3 receptor (Homo sapiens (Human), UniProt P56373). Briefly: Evaluation of human P2X3 receptor inhibitory activity (Test Example 1). Particulars: C6BU-1 cell transfected with human P2X3 receptor gene, FLIPR 384. In kind it is cell-based. In outline: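 FLIPR calcium read-out: signal taken as peak fluorescence after ATP addition divided by starting fluorescence, and IC50 calculated from it. Compound added 5 min before 150 nM ATP solution (pre-dispense stock) to Fluo-3-AM-loaded C6BU-1 cells stably transfected with human P2X3; HEPES buffer pH 7.5 with probenecid.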

Data set [2] concerns partial sciatic nerve ligation model in rats. Put plainly: Analgesic effect in a Seltzer model, Evaluation (1): mechanical allodynia, von Frey filaments (Test Example 6). The data set is classed as in vivo. To be noted: rat Seltzer model, reversal of mechanical allodynia (von Frey), single oral administration of 1 mg/kg, at 3 hours. An excerpt:
Rats were anaesthetized using isoflurane/O2 inhalation anaesthesia. After induction of anesthesia, the left thigh was shaved. An incision was made in the skin just below the hip bone. The muscle was bluntly dissected to expose the sciatic nerve. One third (⅓) to one half (½) of the sciatic nerve thickness was tightly ligated and the wound was closed. The right thigh is used as a sham-operated control. The right thigh undergoes an identical procedure with the left hind limb, however, the sciatic nerve is not manipulated or ligated.
Two weeks after nerve ligation, the effect on mechanical allodynia was assessed using a series of von Frey filaments. For habituation, the rats were placed into a plastic cage on a wire mesh bottom. The mechanical sensitivity (mechanical threshold) of the hind paws was estimated with a series of von Frey filaments (0.4-26 g). The measurement of mechanical sensitivity of the right and left hind paws was performed to obtain predose mechanical sensitivity. […] On the day before the experiment, the rats were evaluated with a series of von Frey filaments to familiarize them with the test procedure. […] Post-dose mechanical sensitivities of the right and left hind paws were measured at approximately 1 to 5 hours after drug administration. Percent reversal of mechanical allodynia for each rat was calculated using the following formula. […]

Data set [3] in a line: Pharmacokinetic test: bioavailability and total body clearance (Test Example 15). In kind it is in vivo. Particulars: SD rats, from AUCs of oral and intravenous groups. On the procedure: • (1) Animals: SD rats were used • (2) Breeding conditions: SD rats were allowed to freely take solid food and sterilized tap water. • (3) Dose and grouping: orally or intravenously administered at a predetermined dose; grouping was as follows (Dose depends on the compound)
Oral administration: 1 mg/kg (n=2)
The total body clearance (CLtot) was calculated by dividing the dose by the AUC of the intravenous administration group.

Data set [4] deals with human ether-a-go-go related gene (hERG) channel (Homo sapiens (Human), UniProt Q12809). Put plainly: hERG test, whole cell patch clamp in CHO cells (Test Example 13). In kind it is cell-based. To be noted: CHO cells expressing hERG channel, tail peak current, 10 minutes. An excerpt: For the purpose of assessing risk of an electrocardiogram QT interval prolongation of the compound of the present invention, effects of the compound of the present invention on delayed rectifier K+ current (IKr), which plays an important role in the ventricular repolarization process, was studied using CHO cells expressing human ether-a-go-go related gene (hERG) channel.
After a cell was retained at a membrane potential of −80 mV by whole cell patch clamp method using an automated patch clamp system (QPatch; Sophion Bioscience A/S) and gave a leak potential of −50 mV, IKr induced by depolarization pulse stimulation at +20 mV for 2 seconds and, further, repolarization pulse stimulation at −50 mV for 2 seconds, was recorded. […] From the recording IKr, an absolute value of the tail peak current was measured based on the current value at the resting membrane potential using analysis software (Falster Patch; Sophion Bioscience A/S). Further, the % inhibition relative to the tail peak current before application of the compound of the present invention was calculated, and compared with the vehicle-applied group (0.1% dimethyl sulfoxide solution) to assess influence of the compound of the present invention on IKr.
On the technique in general: Block of hERG is tested as a sign of cardiac risk.

The target in another data set is rat P2X3 receptor (Rattus norvegicus (Rat), UniProt P49654). Briefly: Evaluation of rat P2X3 receptor inhibitory activity (Test Example 3). In kind it is cell-based. Particulars: rat P2X3 receptor gene expressed in C6BU-1 cell; read-out: ratP2X3 IC50. Here is the method:
Rat P2X3 receptor gene (GenBank accession number NM_031075) was expressed in C6BU-1 cell. The C6BU-1 cells were seeded in a 96-well microtiter plate at a concentration of 2500 cells/well and cultured in the medium (7.0% fetal bovine serum, 7.0% horse serum, and 1% antibiotic and antifungal in DMEM) for one day at 37° C. under 5% carbon dioxide atmosphere. The plasmid was transfected into the cells using transfection reagent FuGENE6 (Promega). The transfected cells were cultured in the medium for one day at 37° C. under 5% carbon dioxide atmosphere. […] Measurement of fluorescence intensity by FDSS 3000 was started, and 40 μL of DMSO solutions containing different concentrations of the test compound as prepared by dilution with dilution buffer (20 mM HEPES, 137 mM NaCl, 5.27 mM KCl, 0.9 mM MgCl2, 1.26 mM CaCl2, 5.6 mM D-glucose, 2.5 mM probenecid, 0.1% Pluronic F-127, pH7.5) were dispensed to each well through the built-in automatic dispenser. Five minutes after, 50 nM ATP solution (50 μL) prepared by dilution with the dilution buffer was dispensed through the built-in automatic dispenser, and the measurement of fluorescence intensity was continued for 4 min. For each well, the specific maximum fluorescence intensity was calculated as the ratio of the maximum fluorescence intensity after addition of the ATP solution to the fluorescence intensity at the starting of the measurement. […]

Chain of human P2X3 receptor (P56373 whole entry): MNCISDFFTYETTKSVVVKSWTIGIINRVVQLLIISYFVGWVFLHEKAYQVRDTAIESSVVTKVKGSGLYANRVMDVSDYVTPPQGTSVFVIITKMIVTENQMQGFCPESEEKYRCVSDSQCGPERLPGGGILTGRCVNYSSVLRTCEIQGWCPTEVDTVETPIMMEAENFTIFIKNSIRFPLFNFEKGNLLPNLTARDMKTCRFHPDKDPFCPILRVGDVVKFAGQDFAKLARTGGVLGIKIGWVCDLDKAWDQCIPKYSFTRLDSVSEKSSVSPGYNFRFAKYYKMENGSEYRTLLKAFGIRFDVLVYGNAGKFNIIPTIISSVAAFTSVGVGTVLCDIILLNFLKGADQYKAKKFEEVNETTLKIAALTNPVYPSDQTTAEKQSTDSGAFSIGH
Chain of human ether-a-go-go related gene (hERG) channel (Q12809 whole entry): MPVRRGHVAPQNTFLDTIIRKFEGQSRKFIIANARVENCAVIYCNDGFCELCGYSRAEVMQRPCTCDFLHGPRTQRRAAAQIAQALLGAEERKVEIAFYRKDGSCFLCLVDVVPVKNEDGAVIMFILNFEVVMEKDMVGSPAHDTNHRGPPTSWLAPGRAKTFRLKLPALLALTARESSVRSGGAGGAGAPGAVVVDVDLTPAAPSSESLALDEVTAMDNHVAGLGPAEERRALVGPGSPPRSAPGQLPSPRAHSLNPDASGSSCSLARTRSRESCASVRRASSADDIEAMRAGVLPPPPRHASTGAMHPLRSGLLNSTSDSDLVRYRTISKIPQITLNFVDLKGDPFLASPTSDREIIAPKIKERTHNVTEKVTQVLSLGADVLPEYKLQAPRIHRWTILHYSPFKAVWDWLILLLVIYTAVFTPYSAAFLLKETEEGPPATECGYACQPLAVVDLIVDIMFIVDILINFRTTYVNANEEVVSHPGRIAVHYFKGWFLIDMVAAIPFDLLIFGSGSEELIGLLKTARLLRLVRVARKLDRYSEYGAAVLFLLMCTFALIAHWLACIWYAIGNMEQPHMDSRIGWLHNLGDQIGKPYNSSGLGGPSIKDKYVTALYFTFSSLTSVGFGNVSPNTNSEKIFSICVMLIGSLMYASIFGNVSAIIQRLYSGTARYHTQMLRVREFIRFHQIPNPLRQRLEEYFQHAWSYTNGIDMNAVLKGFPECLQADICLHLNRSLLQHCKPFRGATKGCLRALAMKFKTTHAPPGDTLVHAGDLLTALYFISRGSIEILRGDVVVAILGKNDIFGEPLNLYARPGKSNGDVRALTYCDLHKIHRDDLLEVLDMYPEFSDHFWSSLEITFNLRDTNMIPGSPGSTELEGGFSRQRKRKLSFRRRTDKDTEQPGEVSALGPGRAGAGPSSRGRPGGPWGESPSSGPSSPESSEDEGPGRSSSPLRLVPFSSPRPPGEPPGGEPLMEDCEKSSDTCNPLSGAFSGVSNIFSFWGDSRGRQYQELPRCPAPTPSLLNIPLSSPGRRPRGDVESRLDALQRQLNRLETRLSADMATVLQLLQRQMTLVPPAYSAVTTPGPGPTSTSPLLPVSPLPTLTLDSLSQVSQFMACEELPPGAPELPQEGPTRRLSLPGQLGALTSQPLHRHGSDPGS
Chain of rat P2X3 receptor (P49654 whole entry): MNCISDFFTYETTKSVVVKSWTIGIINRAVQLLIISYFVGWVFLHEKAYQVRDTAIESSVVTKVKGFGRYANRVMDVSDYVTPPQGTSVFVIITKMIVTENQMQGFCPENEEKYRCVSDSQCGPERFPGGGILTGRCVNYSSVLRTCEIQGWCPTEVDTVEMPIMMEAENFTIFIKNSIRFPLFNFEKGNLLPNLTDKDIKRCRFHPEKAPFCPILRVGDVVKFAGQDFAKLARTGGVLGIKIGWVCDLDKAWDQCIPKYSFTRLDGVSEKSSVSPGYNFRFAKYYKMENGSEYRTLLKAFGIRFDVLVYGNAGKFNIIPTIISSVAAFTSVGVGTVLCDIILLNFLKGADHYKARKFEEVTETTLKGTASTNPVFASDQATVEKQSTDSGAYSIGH

The term IC50 denotes the point on the concentration scale where inhibition reaches its midpoint. `O=c1[nH]/c(=N\c2ccc(Oc3ccc(F)cn3)cc2)n(Cc2ccc(Cl)cc2)c(=O)n1[C@H]1C[C@H](C(=O)O)C1` [Compound I-019]: in data set [1], the “Metabolism Stability (remaining rate)” value worked out at 96%. The midpoint of inhibition against human P2X3 receptor, the IC50, lay at 7 nM. The “% reversal” value in data set [2] came to 27.9%.
Consider `Cc1ccc(Cn2c(=O)n(C[C@H](C)C(=O)O)c(=O)[nH]/c2=N\c2ccc(Oc3cccc(F)n3)cc2)cc1` [Compound I-057], for which the “Metabolism Stability (remaining rate)” value in data set [1] was found to be 91%. Besides, the IC50 against human P2X3 receptor worked out at 5 nM. The BA in data set [3] is 66.4%. Also, in data set [2], the “% reversal” value was 21.4%.
`CC(C)(Cn1c(=O)[nH]/c(=N\c2ccc(Oc3ccc(Cl)cn3)cc2)n(Cc2ccc(Cl)cc2)c1=O)C(=O)O` [Compound I-006]: the “hERG Inhibition” value in data set [4] is on record as 5.3%. It took 5 nM to reach half-maximal inhibition against human P2X3 receptor (IC50).
For the compound `C[C@@H](C(=O)O)[C@H](C)n1c(=O)[nH]/c(=N\c2ccc(Oc3ccc(F)cn3)c(F)c2)n(Cc2ccc(Cl)cc2)c1=O` [Compound I-002], the IC50 on rat P2X3 receptor is 6 nM; against human P2X3 receptor, 5 nM. Also, the “Metabolism Stability (remaining rate)” value in data set [1] is 99%. In data set [4], the “hERG Inhibition” value is recorded as 7.3%.

The values above are taken from US10065941B2, “Aminotriazine derivative and pharmaceutical composition comprising the same” (Shionogi & Co., Ltd., priority 2013, dated 2018).
